MIC and fold resistance data for five compounds are collected here from US6670383B2, “Pyranocoumarin compounds as a novel pharmacophore with anti-TB activity” (priority 2001, dated 2003).

Assay in all cases: microbe, parasite or virus in culture
Common to all, as to format: cell-based

Assay [1] relates to M. tuberculosis strain 1371.
The test system of assay [2] is M. tuberculosis strain 1348.
For assay [3], the system named is M. tuberculosis strain 1356.
The test system of assay [4] is M. tuberculosis strain 1369.
The mark [5] stands for this setting: Mycobacterium tuberculosis, 1371.
[6] abbreviates: Mycobacterium tuberculosis, 1348.
The mark [7] stands for this setting: Mycobacterium tuberculosis, 1356.
The mark [8] stands for this setting: Mycobacterium tuberculosis, 1369.

Converted amounts (≈) assume the structure as drawn. Like-named read-outs stand apart in the source and are kept apart here.

Consider `CC[C@@H](CO)NCCN[C@@H](CC)CO` [Ethambutol], for which the MIC in assay [1] (setting [5]) was 2 µg/mL (≈ 9.79 µM); in assay [2] (setting [6]), 8 µg/mL (≈ 39.2 µM); in assay [3] (setting [7]) it was 64 µg/mL (≈ 313 µM); in assay [4] (setting [8]), 2 µg/mL (≈ 9.79 µM). Also, the fold resistance in assay [1] (strain 1371) is 1 fold; in assay [2] (strain 1348) it was 4 fold; in assay [3] (strain 1356), 32 fold; in assay [4] (strain 1369) it was 1 fold.
`NNC(=O)c1ccncc1` [Isoniazid]: the fold resistance in assay [1] was 0.031 (1) fold; in assay [2], >128 (>4100) fold; in assay [3], 0.25 (8) fold; in assay [4] it was 0.031 (1) fold. Further, the MIC in assay [1] (setting [5]) was 0.031 µg/mL (≈ 0.226 µM); in assay [2] (setting [6]), greater than 128 µg/mL; in assay [3] (setting [7]), 0.25 µg/mL (≈ 1.82 µM); in assay [4] (setting [8]), 0.031 µg/mL (≈ 0.226 µM).
`CO[C@H]1/C=C/O[C@@]2(C)Oc3c(C)c(O)c4c(O)c(c(/C=N/N5CCN(C)CC5)c(O)c4c3C2=O)NC(=O)/C(C)=C\C=C\[C@H](C)[C@H](O)[C@@H](C)[C@@H](O)[C@@H](C)[C@H](OC(C)=O)[C@@H]1C` [Rifampin]: the fold resistance in assay [1] is given as 0.016 (1) fold; in assay [2], 0.031 (2) fold; in assay [3] it was 0.031 (2) fold; in assay [4], 64 (4,000) fold. Moreover, the MIC was 0.016 µg/mL (≈ 0.0194 µM) in assay [1] (setting [5]), 0.031 µg/mL (≈ 0.0377 µM) in assay [2] (setting [6]), 0.031 µg/mL (≈ 0.0377 µM) in assay [3] (setting [7]) and 64 µg/mL (≈ 77.8 µM) in assay [4] (setting [8]).
Consider `[H]/N=C(/N)N[C@H]1[C@H](O)[C@@H](O)[C@H](O[C@@H]2O[C@@H](C)[C@](O)(C=O)[C@H]2O[C@@H]2O[C@@H](CO)[C@H](O)[C@@H](O)[C@@H]2NC)[C@@H](N/C(N)=N\[H])[C@@H]1O` [Streptomycin], for which the MIC in assay [1] (setting [5]) is greater than 128 µg/mL; in assay [2] (setting [6]), 0.25 µg/mL (≈ 0.43 µM); in assay [3] (setting [7]), 0.25 µg/mL (≈ 0.43 µM); in assay [4] (setting [8]), 0.25 µg/mL (≈ 0.43 µM). In addition, the fold resistance entry was “(>512) fold” in assay [1] (strain 1371), 1 fold in assay [2] (strain 1348), 1 fold in assay [3] (strain 1356) and 1 fold in assay [4] (strain 1369).
For the compound (+)-Calanolide A [(+)-Calanolide A (1)], the MIC in assay [1] (strain 1371), in assay [2] (strain 1348), in assay [3] (strain 1356) and in assay [4] (strain 1369) was 8 µg/mL in each case. The fold resistance in assay [1] (strain 1371), in assay [2] (strain 1348), in assay [3] (strain 1356) and in assay [4] (strain 1369) was 1 fold throughout.
